Assay results as given in US20200147243A1, “LIGAND COMPOUND OF ALPHA7 NICOTINIC ACETYLCHOLINE RECEPTOR AND APPLICATION THEREOF” (BEIJING NORMAL UNIVERSITY, priority 2017, published 2020).
Values joined by “and” are separate entries in the source; they are usually repeats but may differ in a detail not shown here. Equal values may be shown once.

Legend:
[1] = In vivo distribution experiment in animals; conditions: for brain/blood ratio / Absorption Amount, blood / Absorption Amount, bone / Absorption Amount, brain / Absorption Amount, heart / Absorption Amount, kidney / Absorption Amount, liver / Absorption Amount, lung / Absorption Amount, muscle / Absorption Amount, spleen: female Kunming mice; for Absorption Amount, blood / Absorption Amount, bone / Absorption Amount, brain / Absorption Amount, heart / Absorption Amount, kidney / Absorption Amount, liver / Absorption Amount, lung / Absorption Amount, muscle / Absorption Amount, spleen: tail vein
α4β2 nAChR = biological target: T1, α4β2 nAChR (Mus musculus, UniProt O70174+Q9ERK7); experiment: Selective experiment in mouse brain, cytisine pre-injection; assay type: in vivo, Kunming mice; conditions: 1 mg/kg cytisine s.c. 5 min in advance, 60 min after administration
T1 construct: from tissue
T1 sequence (O70174 31-629): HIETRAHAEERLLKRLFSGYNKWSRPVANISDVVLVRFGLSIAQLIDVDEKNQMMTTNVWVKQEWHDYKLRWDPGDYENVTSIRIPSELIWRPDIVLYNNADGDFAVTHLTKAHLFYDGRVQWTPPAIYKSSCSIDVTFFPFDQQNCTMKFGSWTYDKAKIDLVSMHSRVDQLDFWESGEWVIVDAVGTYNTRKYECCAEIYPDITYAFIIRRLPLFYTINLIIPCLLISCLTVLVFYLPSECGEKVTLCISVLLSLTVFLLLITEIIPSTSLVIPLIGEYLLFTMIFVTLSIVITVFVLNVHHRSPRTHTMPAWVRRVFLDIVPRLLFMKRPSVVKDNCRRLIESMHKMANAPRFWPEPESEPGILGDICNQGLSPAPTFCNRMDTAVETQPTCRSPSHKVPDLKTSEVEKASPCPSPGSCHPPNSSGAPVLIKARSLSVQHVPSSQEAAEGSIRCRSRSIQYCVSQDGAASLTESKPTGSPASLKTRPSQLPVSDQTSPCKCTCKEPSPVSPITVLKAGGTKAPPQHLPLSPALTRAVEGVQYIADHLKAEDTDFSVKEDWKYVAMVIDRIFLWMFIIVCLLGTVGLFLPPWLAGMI
T1 sequence (Q9ERK7 26-501): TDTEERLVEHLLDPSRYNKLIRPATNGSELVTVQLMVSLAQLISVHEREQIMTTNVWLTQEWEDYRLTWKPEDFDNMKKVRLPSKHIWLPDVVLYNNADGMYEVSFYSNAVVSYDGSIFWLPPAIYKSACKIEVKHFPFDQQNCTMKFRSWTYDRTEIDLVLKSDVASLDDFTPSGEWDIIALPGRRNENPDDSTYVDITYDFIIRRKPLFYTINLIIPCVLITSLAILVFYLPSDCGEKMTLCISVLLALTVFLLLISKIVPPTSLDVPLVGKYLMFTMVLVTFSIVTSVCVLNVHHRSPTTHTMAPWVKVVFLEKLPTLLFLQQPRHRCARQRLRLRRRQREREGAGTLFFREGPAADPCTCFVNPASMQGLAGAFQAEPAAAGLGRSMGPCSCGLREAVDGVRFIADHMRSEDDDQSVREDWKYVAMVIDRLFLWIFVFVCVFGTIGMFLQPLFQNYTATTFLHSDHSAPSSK
Method: The selectivity of radioligand for α4β2 nAChR was explored by subcutaneously injecting 1 mg/kg of cytisine (0.1 mL, with an equal volume of normal saline and 1,2-propanediol as solvents) 5 min in advance, whereas the selectivity for the 5-hydroxytryptamine receptor was explored by subcutaneously injecting 2 mg/kg of ondanstron (0.1 mL, with saline:DMSO=5:1 (V:V) as solvents) 10 min in advance. In the experiment, two groups of mice (n=5, Kunming females, 28-30 g) were injected with 0.1 mL (60 μCi) of [^18F]

[2] = Experiment of brain region distribution; conditions: for Absorption, brain residual / Absorption, cerebellum / Absorption, corpus striatum / Absorption, cortex / Absorption, hippocampus / Absorption, superior and inferior colliculus / Absorption, thalamus: tail vein, female Kunming mice; for Tissue/cerebellum Ratio, corpus striatum / Tissue/cerebellum Ratio, cortex / Tissue/cerebellum Ratio, hippocampus / Tissue/cerebellum Ratio, superior and inferior colliculus / Tissue/cerebellum Ratio, thalamus: mouse brain
[3] = Lipid water partition coefficient (n-octanol / PBS pH 7.4); assay type: physicochemical; conditions: read-out: lipid water partition coefficient log P
[4] = In vitro stability experiment in fetal bovine serum and normal saline; assay type: in vitro ADME
Method: The in vitro stability of the radioligand is of great importance for its further in vivo studies. Generally, the in vitro stability study is carried out in normal saline and animal serum. A specific method was as follows: respectively incubating 10 μCi of HPLC-purified radioligand [^18F] II-15 and 100 μL of fetal bovine serum at 37° C. for 1 h and 2 h, adding 200 μL of acetonitrile thereto after finishing the incubation to fully precipitate proteins, then centrifuging at […] for 5 min (7000 rpm), collecting supernatant, filtering the supernatant with filter membrane, and then performing HPLC analysis on 100 μL of the filtered supernatant; incubating 10 μCi of HPLC-purified radioligand [^18F] II-15 with 100 μL of normal saline at room temperature for 1 h and 2 h, respectively, and then directly analyzing by HPLC.

In the case of `O=C1c2cc(N3CCN4CCC3CC4)ccc2-c2cccc([18F])c21` [[^18F] II-15], the “in vivo defluorination phenomenon (bone absorption)” value ([1]; 5-90 min, mice) is reported as “relatively weaker”, the brain/blood ratio ([1]; 5 min) is reported as 6.23 and the brain/blood ratio ([1]; 15 min) is reported as 9.57 and 9.35. For the same compound, the brain/blood ratio ([1]; 30 min) was 9.57, the brain/blood ratio ([1]; 60 min) was 8.03 and the brain/blood ratio ([1]; 90 min) was 6.98. The “Absorption Amount, blood” value ([1]; 5 min) was 1.43 ± 0.06 % ID/g wet weight, the “Absorption Amount, blood” value ([1]; 15 min) was 1.24 ± 0.16 % ID/g wet weight and the “Absorption Amount, blood” value ([1]; 30 min) was 1.03 ± 0.07 % ID/g wet weight. The “Absorption Amount, blood” value ([1]; 60 min) was 0.68 ± 0.01 % ID/g wet weight, the “Absorption Amount, blood” value ([1]; 90 min) was 0.52 ± 0.06 % ID/g wet weight and the “Absorption Amount, bone” value ([1]; 5 min) was 3.02 ± 0.11 % ID/g wet weight. For the same compound, the “Absorption Amount, bone” value ([1]; 15 min) was 4.55 ± 0.68 % ID/g wet weight, the “Absorption Amount, bone” value ([1]; 30 min) was 4.84 ± 0.18 % ID/g wet weight and the “Absorption Amount, bone” value ([1]; 60 min) was 7.27 ± 1.31 % ID/g wet weight. For the same compound, the “Absorption Amount, bone” value ([1]; 90 min) was 7.65 ± 0.52 % ID/g wet weight, the “Absorption Amount, brain” value ([1]; 5 min) was 8.98±0.41 % ID/g wet weight and the “Absorption Amount, brain” value ([1]; 15 min) was 11.60±0.14 % ID/g wet weight. For the same compound, the “Absorption Amount, brain” value ([1]; 30 min) was 9.86 ± 0.05 % ID/g wet weight, the “Absorption Amount, brain” value ([1]; 60 min) was 5.46±0.27 % ID/g wet weight and the “Absorption Amount, brain” value ([1]; 90 min) was 3.63±0.25 % ID/g wet weight. The “Absorption Amount, heart” value ([1]; 5 min) was 8.37 ± 0.14 % ID/g wet weight, the “Absorption Amount, heart” value ([1]; 15 min) was 4.45 ± 0.62 % ID/g wet weight and the “Absorption Amount, heart” value ([1]; 30 min) was 3.56 ± 0.31 % ID/g wet weight. The “Absorption Amount, heart” value ([1]; 60 min) was 2.19 ± 0.16 % ID/g wet weight, the “Absorption Amount, heart” value ([1]; 90 min) was 1.71 ± 0.13 % ID/g wet weight and the “Absorption Amount, kidney” value ([1]; 5 min) was 15.92 ± 0.24 % ID/g wet weight. For the same compound, the “Absorption Amount, kidney” value ([1]; 15 min) was 11.54 ± 0.79 % ID/g wet weight, the “Absorption Amount, kidney” value ([1]; 30 min) was 8.06 ± 0.69 % ID/g wet weight and the “Absorption Amount, kidney” value ([1]; 60 min) was 4.85 ± 0.443 % ID/g wet weight. The “Absorption Amount, kidney” value ([1]; 90 min) was 4.26 ± 0.19 % ID/g wet weight, the “Absorption Amount, liver” value ([1]; 5 min) was 8.19 ± 1.19 % ID/g wet weight and the “Absorption Amount, liver” value ([1]; 15 min) was 12.28 ± 1.96 % ID/g wet weight. The “Absorption Amount, liver” value ([1]; 30 min) was 13.74 ± 1.36 % ID/g wet weight, the “Absorption Amount, liver” value ([1]; 60 min) was 9.74 ± 0.07 % ID/g wet weight and the “Absorption Amount, liver” value ([1]; 90 min) was 7.46 ± 0.19 % ID/g wet weight. The “Absorption Amount, lung” value ([1]; 5 min) was 70.52 ± 7.86 % ID/g wet weight, the “Absorption Amount, lung” value ([1]; 15 min) was 20.23 ± 1.51 % ID/g wet weight and the “Absorption Amount, lung” value ([1]; 30 min) was 18.30 ± 1.56 % ID/g wet weight. For the same compound, the “Absorption Amount, lung” value ([1]; 60 min) was 7.64 ± 0.99 % ID/g wet weight, the “Absorption Amount, lung” value ([1]; 90 min) was 4.99 ± 0.45 % ID/g wet weight and the “Absorption Amount, muscle” value ([1]; 5 min) was 5.51 ± 0.65 % ID/g wet weight. For the same compound, the “Absorption Amount, muscle” value ([1]; 15 min) was 3.48 ± 0.40 % ID/g wet weight, the “Absorption Amount, muscle” value ([1]; 30 min) was 2.36 ± 0.30 % ID/g wet weight and the “Absorption Amount, muscle” value ([1]; 60 min) was 1.79 ± 0.06 % ID/g wet weight. For the same compound, the “Absorption Amount, muscle” value ([1]; 90 min) was 1.32 ± 0.11 % ID/g wet weight, the “Absorption Amount, spleen” value ([1]; 5 min) was 7.72 ± 0.65 % ID/g wet weight and the “Absorption Amount, spleen” value ([1]; 15 min) was 11.58 ± 0.92 % ID/g wet weight. The “Absorption Amount, spleen” value ([1]; 30 min) was 8.67 ± 0.48 % ID/g wet weight, the “Absorption Amount, spleen” value ([1]; 60 min) was 4.08 ± 0.38 % ID/g wet weight and the “Absorption Amount, spleen” value ([1]; 90 min) was 2.97 ± 0.25 % ID/g wet weight. For the same compound, the “difference in brain uptake between experimental group and control group” value (α4β2 nAChR) was “no significant difference”, the “Absorption, brain residual” value ([2]; 5 min) was 6.03 ± 0.23 % ID/g wet weight and the “Absorption, brain residual” value ([2]; 15 min) was 5.58 ± 0.50 % ID/g wet weight. The “Absorption, brain residual” value ([2]; 30 min) was 5.25 ± 0.80 % ID/g wet weight, the “Absorption, brain residual” value ([2]; 60 min) was 4.21 ± 0.22 % ID/g wet weight and the “Absorption, brain residual” value ([2]; 90 min) was 2.32 ± 0.26 % ID/g wet weight. For the same compound, the “Absorption, cerebellum” value ([2]; 5 min) was 5.83 ± 0.01 % ID/g wet weight, the “Absorption, cerebellum” value ([2]; 15 min) was 5.10 ± 0.35 % ID/g wet weight and the “Absorption, cerebellum” value ([2]; 30 min) was 4.53 ± 0.14 % ID/g wet weight. The “Absorption, cerebellum” value ([2]; 60 min) was 2.69 ± 0.10 % ID/g wet weight, the “Absorption, cerebellum” value ([2]; 90 min) was 1.53 ± 0.10 % ID/g wet weight and the “Tissue/cerebellum Ratio, corpus striatum” value ([2]; 5 min) was 1.20. The “Absorption, corpus striatum” value ([2]; 5 min) was 6.99 ± 0.31 % ID/g wet weight, the “Tissue/cerebellum Ratio, corpus striatum” value ([2]; 15 min) was 1.28 and the “Absorption, corpus striatum” value ([2]; 15 min) was 6.55 ± 0.25 % ID/g wet weight. For the same compound, the “Tissue/cerebellum Ratio, corpus striatum” value ([2]; 30 min) was 1.85, the “Absorption, corpus striatum” value ([2]; 30 min) was 8.37±0.27 % ID/g wet weight and the “Tissue/cerebellum Ratio, corpus striatum” value ([2]; 60 min) was 1.87. The “Absorption, corpus striatum” value ([2]; 60 min) was 5.01 ± 0.31 % ID/g wet weight, the “Tissue/cerebellum Ratio, corpus striatum” value ([2]; 90 min) was 2.9 and 2.86 and the “Absorption, corpus striatum” value ([2]; 90 min) was 4.37 ± 0.18 % ID/g wet weight. The “Tissue/cerebellum Ratio, cortex” value ([2]; 5 min) was 1.24, the “Absorption, cortex” value ([2]; 5 min) was 7.24 ± 0.33 % ID/g wet weight and the “Tissue/cerebellum Ratio, cortex” value ([2]; 15 min) was 1.63. For the same compound, the “Absorption, cortex” value ([2]; 15 min) was 8.31 ± 0.22 % ID/g wet weight, the “Tissue/cerebellum Ratio, cortex” value ([2]; 30 min) was 2.07 and the “Absorption, cortex” value ([2]; 30 min) was 9.39±0.24 % ID/g wet weight. For the same compound, the “Tissue/cerebellum Ratio, cortex” value ([2]; 60 min) was 2.29, the “Absorption, cortex” value ([2]; 60 min) was 6.14 ± 0.34 % ID/g wet weight and the “Tissue/cerebellum Ratio, cortex” value ([2]; 90 min) was 2.5 and 2.47. The “Absorption, cortex” value ([2]; 90 min) was 3.77 ± 0.95 % ID/g wet weight, the “Tissue/cerebellum Ratio, hippocampus” value ([2]; 5 min) was 0.99 and the “Absorption, hippocampus” value ([2]; 5 min) was 5.77 ± 0.17 % ID/g wet weight. The “Tissue/cerebellum Ratio, hippocampus” value ([2]; 15 min) was 1.20, the “Absorption, hippocampus” value ([2]; 15 min) was 6.12 ± 0.40 % ID/g wet weight and the “Tissue/cerebellum Ratio, hippocampus” value ([2]; 30 min) was 1.39. The “Absorption, hippocampus” value ([2]; 30 min) was 6.31±0.82 % ID/g wet weight, the “Tissue/cerebellum Ratio, hippocampus” value ([2]; 60 min) was 2.36 and the “Absorption, hippocampus” value ([2]; 60 min) was 6.34 ± 0.72 % ID/g wet weight. The “Tissue/cerebellum Ratio, hippocampus” value ([2]; 90 min) was 3.6 and 3.63, the “Absorption, hippocampus” value ([2]; 90 min) was 5.54 ± 0.64 % ID/g wet weight and the “Tissue/cerebellum Ratio, superior and inferior colliculus” value ([2]; 5 min) was 1.08. The “Absorption, superior and inferior colliculus” value ([2]; 5 min) was 6.32 ± 0.67 % ID/g wet weight, the “Tissue/cerebellum Ratio, superior and inferior colliculus” value ([2]; 15 min) was 1.28 and the “Absorption, superior and inferior colliculus” value ([2]; 15 min) was 6.53 ± 0.58 % ID/g wet weight. For the same compound, the “Tissue/cerebellum Ratio, superior and inferior colliculus” value ([2]; 30 min) was 1.31, the “Absorption, superior and inferior colliculus” value ([2]; 30 min) was 5.93 ± 0.52 % ID/g wet weight and the “Tissue/cerebellum Ratio, superior and inferior colliculus” value ([2]; 60 min) was 1.45. For the same compound, the “Absorption, superior and inferior colliculus” value ([2]; 60 min) was 3.90 ± 0.36 % ID/g wet weight, the “Tissue/cerebellum Ratio, superior and inferior colliculus” value ([2]; 90 min) was 1.86 and the “Absorption, superior and inferior colliculus” value ([2]; 90 min) was 2.85 ± 0.10 % ID/g wet weight. For the same compound, the “Tissue/cerebellum Ratio, thalamus” value ([2]; 5 min) was 0.98, the “Absorption, thalamus” value ([2]; 5 min) was 5.74 ± 0.69 % ID/g wet weight and the “Tissue/cerebellum Ratio, thalamus” value ([2]; 15 min) was 1.11. The “Absorption, thalamus” value ([2]; 15 min) was 5.66 ± 0.34 % ID/g wet weight, the “Tissue/cerebellum Ratio, thalamus” value ([2]; 30 min) was 1.28 and the “Absorption, thalamus” value ([2]; 30 min) was 5.80 ± 0.47 % ID/g wet weight. The “Tissue/cerebellum Ratio, thalamus” value ([2]; 60 min) was 1.82, the “Absorption, thalamus” value ([2]; 60 min) was 4.89 ± 0.04 % ID/g wet weight and the “Tissue/cerebellum Ratio, thalamus” value ([2]; 90 min) was 2.10. The “Absorption, thalamus” value ([2]; 90 min) was 3.19 ± 0.26 % ID/g wet weight, the logP [3] was 1.64 ± 0.12 and the “radiochemical purity after incubation” value ([4]; fetal calf serum, 37° C., 1 h) was “greater than 98%”. The “radiochemical purity after incubation” value ([4]; fetal calf serum, 37° C., 2 h) was “greater than 98%”, the “radiochemical purity after incubation” value ([4]; normal saline, room temperature, 1 h) was “greater than 98%” and the “radiochemical purity after incubation” value ([4]; normal saline, room temperature, 2 h) was “greater than 98%”.
